Assay results: patent publication US7148352B2, “Method of inhibiting neurotrophin-receptor binding” (Queen's University at Kingston, priority 1999, dated 2006)
Values joined by “and” are separate entries in the source; they are usually repeats but may differ in a detail not shown here. Identical values can stand only once.

Tests used:
[1] = target: T1, TrkA and p75^NTR (PC12 cells) (Mus musculus, UniProt P01139); assay: 125I-NGF receptor binding to PC12 cells in the presence of competitor; design: species or system rat; conditions: compound 50 μM; 125I-NGF 1 nM; 2 h at 4° C.; average of three values
T1 construct: PC12 cells (rat pheochromocytoma cells expressing TrkA and p75^NTR; obtained from ATCC); host or cells: PC12 rat pheochromocytoma cells (intact, in suspension)
T1 sequence (P01139 122-241): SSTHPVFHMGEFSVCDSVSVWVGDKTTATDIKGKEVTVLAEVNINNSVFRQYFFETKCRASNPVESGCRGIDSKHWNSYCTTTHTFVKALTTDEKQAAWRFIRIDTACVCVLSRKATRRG
Experimental: (§1) The radio-iodination and receptor binding of NGF (Sutter et al., 1979) was performed with modifications (Ross et al., 1997) as follows: Evaluation of the ability of NCP compounds to inhibit TrkA and p75^NTR binding was determined by the binding of ^125I-NGF to PC12 cells (rat pheochromocytoma cells expressing TrkA and p75^NTR; obtained from ATCC) and PC12^nnr5 (rat pheochromocytoma cells expressing p75^NTR only; obtained from Dr. L. Greene, Columbia University, NY). The p75^NTR is in a low affinity state and a high affinity state, respectively, in these cell types (Ross et al., 1998). PC12 and PC12^nnr5 cells were grown in RPMI (Sigma) with 10% heat inactivated donor horse serum and 5% fetal calf serum. Cells were harvested by replacing the medium with calcium, magnesium-free balanced salt solution (Gey's solution) and incubating at 37° C. for 15 minutes. Cells were pelleted by centrifugation and suspended in HKR buffer (10 mM Hepes [pH 7.35] containing 125 mM NaCl, 4.8 mM KCl, 1.3 mM CaCl2, 1.2 mM MgSO4, 1.2 mM KH2PO4, 1 g/L glucose and 1 g/L BSA) at a cell concentration of 2×10^6/mL and kept at 4° C. Triplicate tubes were set up for total binding, non-specific binding and binding in the presence of candidate competitor molecule (i.e., a tube for each data point). Each tube contained ^125I-NGF (at 1 nM), 400,000 cells (for a final cell concentration of 10^6/mL) and NGF (50 nM, to define non-specific binding), as required. The tubes were incubated for 2 h at 4° C. and specific binding evaluated by measuring specifically bound DPM (Ross et al., 1997). Data were analysed and the results expressed as receptor binding observed in the presence of competitor (e.g. NCP compounds) as a percentage of receptor binding in the absence of a competitor.

[2] = system: T2, TrkA and p75^NTR (PC12 cells); assay: as above; design: species or system rat; conditions: compound 50 μM; 125I-NGF 1 nM; 2 h at 4° C.; receptor binding as percentage of binding in absence of competitor
T2 construct: PC12 cells (rat pheochromocytoma cells expressing TrkA and p75^NTR; obtained from ATCC); host or cells: PC12 rat pheochromocytoma cells (intact, in suspension)
T2 sequence (P01139 122-241): as above
Experimental: as §1

[3] = system: p75^NTR (PC12^nnr5 cells, expressing p75^NTR only); assay: 125I-NGF receptor binding to PC12^nnr5 cells in the presence of competitor; design: species or system rat; conditions: compound 50 μM, 125I-NGF 1 nM, 2 h at 4° C.; for nnr5 % of Max, Avg: average of three values; for nnr5 % of Max (individual determinations): receptor binding as percentage of binding in absence of competitor
Experimental: as §1

SMILES | PC12 % of Max, Avg [1] | PC12 % of Max (individual determinations) [2] | nnr5 % of Max, Avg [3] | nnr5 % of Max (individual determinations) [3] | melting point [°C]
O=C(O)c1cccc(N2C(=O)c3ccc([N+](=O)[O-])cc3C2=O)c1 [Compound 146, 4-nitro-N-(m-carboxyphenyl)phthalimide] | = 58 % of Max | 52 % of Max (2×) and 71 % of Max | = 44 % of Max | 48 % of Max and 43 % of Max and 42 % of Max | 306 to 308
O=C(O)c1ccccc1N1C(=O)c2cccc3cc([N+](=O)[O-])cc(c23)C1=O [Compound 207, 3-nitro-N-(o-carboxyphenyl)-1,8-naphthalimide] | = 54 % of Max | 60 % of Max and 34 % of Max and 69 % of Max | = 58 % of Max | 64 % of Max and 52 % of Max and 59 % of Max | –
O=C(O)c1ccc(CN2C(=O)c3cccc4cc([N+](=O)[O-])cc(c34)C2=O)cc1 [Compound 208, 3-nitro-N-(p-carboxyphenylmethyl)-1,8-naphthalimide] | = 49 % of Max | 56 % of Max and 45 % of Max and 47 % of Max | = 83 % of Max | 103 % of Max and 87 % of Max and 58 % of Max | –
O=C(O)c1ccc(N2C(=O)c3cccc4c([N+](=O)[O-])ccc(c34)C2=O)cc1 [Compound 225, 4-nitro-N-(p-carboxyphenyl)-1,8-naphthalimide] | = 66 % of Max | 69 % of Max and 60 % of Max and 68 % of Max | = 56 % of Max | 49 % of Max and 50 % of Max and 68 % of Max | –
O=C(O)c1cccc(N2C(=O)c3cccc4c([N+](=O)[O-])ccc(c34)C2=O)c1 [Compound 226, 4-nitro-N-(m-carboxyphenyl)-1,8-naphthalimide] | = 30 % of Max | 27 % of Max and 29 % of Max and 35 % of Max | = 12 % of Max | 13 % of Max (2×) and 10 % of Max | –
